Values of other authors as cited in EP4026540A1, “A FILM COATED TABLET COMPRISING APIXABAN” (SANOVEL ILAC SANAYI VE TICARET A.S., priority 2021, dated 2022).

Settings: single 10 mg dose

SMILES: COc1ccc(-n2nc(C(N)=O)c3c2C(=O)N(c2ccc(N4CCCCC4=O)cc2)CC3)cc1 [apixaban, 1-(4-methoxyphenyl)-7-oxo-6-[4-(2-oxopiperidin-1-yl)phenyl]-4,5,6,7-tetrahydro-1H-pyrazolo[3,4-c]pyridine-3-carboxamide]
- oral bioavailability: about 50%
